System: HCC1937 cells
Experiment: Cell culture under Anoikis-inducing conditions, western blot and imaging
Assay type: cell-based, human
Procedure: Protein extracts were mixed with loading buffer, which consisted of 10 % (v/v) β-mercaptoethanol (Sigma-Aldrich), 10 % SDS, 50 % (v/v) glycerol, 200 mM Tris-HCl pH 6.8 and 0.1 % bromophenol blue (Sigma-Aldrich). They were boiled at 95 °C for 8 min and 20-30 µg protein were loaded into 8, 10 or 15 % acrylamide/bis-acrylamide self-made gels, depending on the molecular weight of the target protein/s to investigate. Gels were run at 80 V for approximately 2 h using a Mini-PROTEAN Tetra electrophoresis system (BioRad), and then transferred to methanol-preactivated polyvinylidene fluoride (PVDF) membranes (Millipore) at 100 V and 4 °C for 1-1.5 h with a Mini Trans-Blot Electrophoretic Transfer Cell (BioRad). Afterwards, membranes with the transferred proteins were stained with ATX Ponceau S red staining solution (Sigma-Aldrich) for 10 min at room temperature, photographed in an Amersham Imager 600 (GE Healthcare) and unstained with distilled water. They were then blocked for 1 h at room temperature with 5 % skim milk (Sigma-Aldrich) diluted in TBST buffer (Tris-buffered saline TBS composed of 20 mM Tris and 150 mM NaCl, supplemented with 0.05 % (v/v) Tween-20, Sigma-Aldrich) with shaking. Next, membranes were incubated overnight at 4 °C with rotation with primary antibodies of interest (see antibody references in Table 3), diluted in 5 % skim milk in TBST. After 4-5 TBST washes (5 min/wash), membranes were incubated for 1 h at room temperature with rotation with secondary antibodies conjugated to horseradish peroxidase (HRP) (see antibody references in Table 3), diluted in 5 % skim milk in TBST. Membranes were rinsed again 4-5 times (5 min/wash) with TBST and the signal was developed with Pierce ECL Western Blotting Substrate (Thermo Fisher Scientific), in either a LAS-3000 Imager (Fujifilm) or an Amersham Imager 600 (GE Healthcare). When necessary, membranes were stripped for 15 min with a pH 2.2 buffer composed of […], 0.5 g SDS and 5 mL Tween20 in 500 mL distilled water. Once stripped, membranes were washed with TBST for 15 min, re-blocked with 5 % skim milk and re-probed with the antibodies of choice. Ponceau staining and western blot images were analysed and their band intensities quantitated with Image J software.
HCC1937 cells were cultured under anchorage-independent growth conditions for 48 h. For this purpose, non-adherent 90 mm polystyrene Petri dishes (Thermo Fisher Scientific) were coated with 10 mg/ml poly-HEMA (Sigma-Aldrich), which makes the dish surface highly repellent to cells, promoting their culture under forced-suspension conditions. […] Images of the cultures were taken at 0 and 48 h, and cell pellets were then collected for western blot analysis.
Anoikis refers to a form of programmed cell death induced by disruption of cell adhesion of normal epithelial cells that detach from the surrounding extracellular matrix. Anoikis resistance has been identified as a hallmark of cancer cells, as survival of normally adherent cells in suspension conditions can enable them to metastasize to distant sites. It has been studied both in the presence and absence of serum; serum deprivation constitutes another way of measuring cell resilience under adverse circumstances, as fetal bovine serum (FBS) contains a variety of growth factors and other elements required for cell survival in culture. When cultured under anchorage-independent/forced suspension conditions for 48 h (Figure 10.C), Cx43_HCC1937 cells formed smaller multicellular aggregates (dashed red lines) than EV_HCC1937, particularly in the absence of FBS.

[1] = Cx43_HCC1937, 50 µM olaparib, 48 h Anoikis-inducing conditions
[2] = EV_HCC1937, 50 µM olaparib, 48 h Anoikis-inducing conditions

O=C(c1cc(Cc2n[nH]c(=O)c3ccccc23)ccc1F)N1CCN(C(=O)C2CC2)CC1 [Olaparib, olaparib]
cell aggregates in suspension (50 µM olaparib, 48 h, effect more pronounced in Cx43_HCC1937 than EV): partial disintegration of these clusters | Total protein PARylation [1]: decrease | cleaved caspase 3 levels [1]: further increased this cleavage | γH2AX (Cx43_HCC1937, 50 µM olaparib, 48 h Anoikis-inducing conditions, absence of serum): further exacerbated this outcome | Total protein PARylation [2]: rise | cleaved caspase 3 levels [2]: no significant changes

— patent publication EP4463162B1, “CONNEXIN 43 FOR USE IN TREATING BRCA1/2-MUTATED CANCER” (Fundación Profesor Novoa Santos, priority 2022, dated 2023)
